Test results from patent US20200163938A1, “PHARMACEUTICAL COMPOSITION COMPRISING IRON CHELATOR EXHIBITING ANTITUMOR ACTIVITY, ANTIBACTERIAL ACTIVITY AND/OR ANTIVIRUS ACTIVITY, AND HAVING REDUCED SIDE EFFECTS” (priority 2017, published 2020).
Entries after “also recorded” stand apart in the source; their conditions may differ.

Experiments:
[1] = system: C. albicans (ATCC10231; Candida albicans); experiment: Minimum growth inhibition concentration (MIC); type: cell-based; conditions: 24 hours
Procedure: (§1) The dilution series of the chelating agent of each test group was prepared according to a standard method, microbes were inoculated, and then 24 hours later, the microbial growth was confirmed, thereby determining the minimum growth inhibition concentration of the chelating agent of each test group. Microbes used herein were S. aureus (ATCC6538; Staphylococcus aureus), P. aeruginosa (ATCC9027; Pseudomonas aeruginosa) and C. albicans (ATCC10231; Candida albicans). Drugs used herein were oxacillin, vancomycin and deferasirox as positive controls.

[2] = system: P. aeruginosa (ATCC9027; Pseudomonas aeruginosa); experiment: Minimum growth inhibition concentration (MIC); type: cell-based
Procedure: as §1

[3] = system: S. aureus (ATCC6538; Staphylococcus aureus); experiment: Minimum growth inhibition concentration (MIC); type: cell-based
Procedure: as §1

[4] = system: S. mutans (ATCC25175); experiment: Antibacterial activity, turbidity and ATP assay; type: cell-based, Streptococcus mutans; conditions: aerobic culture 37° C., 18 hours; FIGS. 6A, 6B
Procedure: First, the antibacterial activity of a dental caries-causing bacterium, S. mutans (ATCC25175) was examined. With the use of a liquid medium prepared by adding a yeast extract and the chelating agent of each test group to TSB medium, aerobic culture was performed at 37° C. for 18 hours, and then turbidity was found from optical density (OD570 or 595 nm). Cell activity was measured using an ATP assay kit (Kikkoman Corporation). Results were as depicted in FIGS. 6A and 6B.

[5] = system: A. actinomycetemcomitans AaY4 (ATCC); experiment: Antibacterial activity, turbidity and ATP assay; type: cell-based, Aggregatibacter actinomycetemcomitans; conditions: anaerobic culture 37° C., 18 hours; FIGS. 7A, 7B
Procedure: A bacterial strain of one of periodontopathic bacteria, A. actinomycetemcomitans, used herein was AaY4 (ATCC). With the use of a liquid medium prepared by adding a yeast extract, sodium bicarbonate and the chelating agent of each test group to TSB medium, anaerobic culture (Anaeropack-anaerobic) was performed at 37° C. for 18 hours. Turbidity was measured using absorbance (OD570 or 595 nm), and cell activity was measured using an ATP assay kit. Results were as depicted in FIGS. 7A and 7B.

With `Cl.OCC1OC(O)C(NCc2ccc(O)c(O)c2O)C(O)C1O` (stereo not shown) [Test group 6] the “MIC C. albicans” value [1] was over 800 µg/mL, the “MIC P. aeruginosa” value ([2]; 24 hours) was 400 µg/mL and the “antimicrobial effects on P. aeruginosa (in words)” value ([2]; from Table 10) was “exhibited antimicrobial effects”. For the same compound, the “MIC S. aureus” value ([3]; 24 hours) was 400 µg/mL, the “antimicrobial effects on S. aureus (in words)” value ([3]; from Table 10) was “strong antimicrobial effects” and the “antimicrobial effects on S. mutans (turbidity, ATP activity)” value [4] was “strong antimicrobial effects; also recorded: very strong antibacterial activity”. For the same compound, the “antimicrobial effects on A. actinomycetemcomitans (turbidity, ATP activity)” value [5] was “strong antimicrobial effects”.
